The values below come from patent US12662707B2, “MYC amplification drives resistance to pan-RAS inhibitors in pancreatic cancer” (The Trustees of Columbia University in the City of New York, priority 2024, dated 2026).

Data set [1] relates to human PDAC organoids. As to the kind of experiment: Organoid drug treatment and viability assay. The following applies: Matrigel-embedded human PDAC organoids; 6 days. Type of data set: cell-based. The procedure: Organoids were cultured at 37° C. in 5% CO2. Cells were seeded in growth factor reduced Matrigel (Corning; Cat. #356231) domes and incubated with human organoid medium formulated as follows: Advanced DMEM/F12-based-conditioned medium, 1×B27 supplement, 10 mM HEPES, 2 mM GlutaMAX, 10 mM nicotinamide, 1.25 mM N-acetylcysteine, 50 ng/mL mEGF, 100 ng/mL hFGF10, […] hGastrin I, 500 nM A83-01, Noggin 100 ng/mL, 1×Wnt-3A conditioned 10% FBS DMEM (50% by volume) and 1×R-spondin Conditioned Basal Medium (10% by volume)^52,53
Organoids were dissociated using TrypLE Express (Thermo Fisher, Cat. #12604054) and cells were seeded into ultra-low attachment 384-well plates at 1×10^3 cells per well into […] of culture media, consisting of 10% Matrigel and 90% human organoid medium. […] Cell viability was assessed 6 days post-treatment using a Cell-TiterGlo 3D Cell Viability assay (Promega, G9683), according to the manufacturer's instructions. […] was read using a FLUOstar Omega microplate reader. Technical triplicates were analyzed for each biological replicate and a total of three biological replicates were done for each cell line. CTG assay readouts were plotted as a function of log molar [inhibitor] and a 4-parameter sigmoidal concentration response model was fitted to the data. […]

For data set [2], the system named is RAS/MAPK pathway (pERK) in murine PDAC cell lines. In words: Western blot of pERK, murine PDAC cell lines. Conditions: 1-100 nM, 2 hours. It counts as cell-based. The procedure:
Cells were seeded at 7.5×10^5-4×10^6 cells per well in 6-well plates or 100 mm dishes in growth medium. After overnight incubation, indicated compound (RMC-7977, IAG933 or DMSO (0.1% v/v)) were added and incubated for the indicated time points. Cells were washed twice with ice-cold PBS and lysed with NP-40 lysis buffer (Thermo Fisher Scientific, J60766), MSD Tris Lysis Buffer (MSD, R60TX-2), RIPA buffer (50 mM TRIS-HCl, pH 7.5, 150 mM NaCl, 1% NP-40, 0.5% sodium deoxycholate, 0.1% SDS) or a lysis buffer containing 1% Triton X-100, 20 mM Tris-HCl, 150 mM NaCl, and 1 mM EDTA. All lysis buffers were supplemented with protease and phosphatase inhibitors. Lysates were scraped and collected before centrifugation at 21,000×g for 10 minutes at 4° C. The protein-containing supernatants were quantified by BCA assay (Pierce, 23225) and equal quantities of protein were denatured with LDS and reducing agent at 95° C. Samples were resolved on 12% or 4-12% Bis-Tris polyacrylamide gels, then transferred to a nitrocellulose or PVDF membrane using the iBlot 2.0 system or wet transfer. Membranes were blocked in Intercept TBS buffer (LiCor, 927-60001) or 3-5% milk before probing with primary antibodies overnight at 4° C. Secondary antibodies were added as appropriate, and the membranes were imaged on a LiCor Odyssey imager. […]

The test system of data set [3] is pERK in KPF/FC tumors. As to the kind of experiment: PK/PD in KPF/FC tumors (pERK IHC). Type of data set: in vivo. Conditions: Mus musculus, read-out: EC50, pERK inhibition vs RMC-7977 concentration in tumors. The procedure: Tumor formation in KPF/FC (KrasLSL.G12D/+; p53flox/flox; Pdx1-Cre) mice was monitored by bi-weekly palpations until the detection of a mass, which was then confirmed by ultrasound. Tumor-bearing mice were randomized and assigned into groups (n=3/dose/timepoint). Single dose of RMC-7977 was administered orally at 10 mg/kg, 25 mg/kg and 50 mg/kg. The same vehicle formulation was used for the control group. Whole blood and tissue (tumors and colons) were harvested at indicated time points preserved as previously described (See Xenograft studies section).
Whole blood, tumor, colon and skin tissue concentrations of RMC-7977 were determined using liquid chromatography-tandem mass spectrometry (LC-MS/MS) methods. Tissue samples were homogenized with a 5× or 10× volume of homogenization buffer (methanol/15 mM PBS (1:2; v:v) or 15 mM PBS with 10% methanol). […] After thorough mixing and centrifugation, the supernatant was directly analyzed on a Sciex 6500+ triple quadrupole mass spectrometer equipped with an ACQUITY or Shimadzu UPLC system. […] RMC-7977 and IS (verapamil or terfenadine) were detected by positive electrospray ionization using multiple reaction monitoring (RMC-7977: m/z 865.4/706.4 or m/z 865.3/833.5; verapamil: m/z 455.2/164.9; terfenadine: m/z 472.3/436.4). The lower limit of quantification was 0.5 ng/mL or 2.0 ng/mL for blood, tumor, and other tissue. […]

The subject of data set [4] is autochthonous KPCY pancreatic tumors. In words: Short-term study in KPCY mice. Type of data set: in vivo, mouse. Conditions: daily 25 mg/kg, two weeks. Here is the method: Animals were randomized into groups and treated with Vehicle (n=6) or RMC-7977 (25 mg/kg; n=8). Treatments were performed every day via oral gavage for 15 days and ultrasounds were performed on day 8 and 15. Animals were sacrificed after last dose and tissue was collected and preserved as previously described (See Xenograft studies section).

On to `CCn1c(-c2cc(N3CCN(C4CC4)CC3)cnc2[C@H](C)OC)c2c3cc(ccc31)-c1csc(n1)C[C@H](NC(=O)[C@H]1[C@@H]3COC[C@@H]31)C(=O)N1CCC[C@H](N1)C(=O)OCC(C)(C)C2` [RMC-7977], for which the “potency in concentration-response cell viability assays” value in data set [1] is on record as “low nanomolar potency”. Moreover, the “phosphorylation of ERK1/2 (pERK)” value in data set [2] is recorded as “reduced phosphorylation”. Also, the EC50 in data set [3] came out at 321 nM. The tumor response entry in data set [4] (KPCY, C57Bl/6) is “regressions in most tumors”. For the same compound, the “impact on animal weight” value in data set [4] is recorded as “little impact”.
